Data from US5296485A, “Substituted N-phenylpiperidines and drugs therefrom” (BASF Aktiengesellschaft, priority 1991, dated 1994).
Where two headings read alike, the source gives them in different places.

Legend:
guinea-pig hearts = test: ECG measurement of QT prolongation on isolated perfused (Langendorff) guinea-pig hearts; design: species or system guinea-pig (male Duncin-Hartley); conditions: Cavia porcellus, 0.25 h; isolated guinea-pig heart, Krebs-Henseleit perfusate, 37° C., cumulative addition at 15 min intervals; linear regression on log dose; read-out: ED20% (dose at which the QT interval is increased by 20% from the initial level)
Description: In this connection, the cardiac cycle is divided into systole (contraction of the heart), also called QT interval, and diastole (relaxation of the heart with filling of the ventricles with blood). Repolarization inhibitors increase the QT interval but have a negligible effect on the atrioventricular conduction time (PQ interval) and the period of isometric contraction (QRS time, from start of systole to opening of the semilunar valves) (see Pschyrembel, 254th Edition, 1982).
The activity of the compounds according to the invention as repolarization inhibitors can be investigated in animal experiments by ECG measurements on, for example, guinea-pig hearts (see Basic Res. Cardiol. 82 (1987) 437; J. Pharmacol. Methods 21 (1989) 195). Comparison of the activities of various substances is based, for example, on the dose of an active substance at which the QT interval is increased by 20% from the initial level (ED20%). To do this, the logarithms of the doses of the substances are plotted against the experimentally found relative changes in the QT interval, and linear regression is used to determine the equation of a straight line from which the ED20% can then be calculated.
This method was used to determine the ED20% values of compounds according to the invention (see Table 1) . The comparison substance was D-sotalol [4'-(1-hydroxy-2-(isopropylamino)ethyl)methanesulfonanilide].
The experimental animals were male Duncin-Hartley guinea-pigs weighing from 300 to 350 g. 30 min after administration of 1250 I.U. of heparin/kg of body weight into the abdominal cavity, the animals were sacrificed by a blow to the back of the neck. The common carotid arteries were severed for exsanguination, then the thoracic cavity was opened and the heart was removed and connected to a perfusion apparatus. The Langendorff perfusion was carried out with oxygen-enriched Krebs-Henseleit solution (NaCl 6896 mg/l; KCl 350 mg/l; MgSO4 285 mg/l; CaCl2 370 mg/l; KH2 PO4 161 mg/l; NaHCO3 2090 mg/l; glucose 2000 mg/1) at 37° C. The perfusion volume per unit time was 4 to 6 ml/min, the total volume was 100 ml and the perfusion pressure was 60 to 70 mm Hg. Circulating perfusion was carried out after an equilibration time of 30 min.
Two silver electrodes attached to the surface of the heart in the upper region of the left coronary artery and on the rear of the heart at the level of the valve were used for the ECG recordings. The PQ and QT intervals and QRS times, and the heart rate, were measured.
The substances were added to the perfusate cumulatively at 15 min intervals.

sigma receptor [1] = test: Sigma receptor binding ([^3 H]-ditolylguanidine); conditions: rat cerebra membranes, pH 7.7, 37° C., read-out: Activity constants Ki for the [^3 H]-ditolylguanidine binding site
humans = conditions: substances which bind to sigma receptors; J. Pharmacol. Exp. Ther. 197 (1976) 517; cited from earlier work
sigma binding sites = conditions: J. Pharmacol. Exp. Ther. 238 (1986) 739; cited from earlier work
sigma receptor [2] = conditions: cited from earlier work

`N#Cc1ccc(N2CCC(N3CCN(c4ccc([N+](=O)[O-])cc4)CC3)CC2)cc1` [Example 3, N-[1-(4-Cyanophenyl)-4-piperidinyl)-N'-(4-nitrophenyl)piperazine] gave an EC20 (guinea-pig hearts) of 0.031 µM.

In the case of `CN(Cc1ccccc1)CC1CCN(c2ccc([N+](=O)[O-])cc2)CC1` [Example 2, 4-(N-Benzyl-N-methylaminomethyl)-1-(4-nitrophenyl)piperidine], the EC20 (guinea-pig hearts) is reported as 0.42 µM and the Ki (sigma receptor [1]) is reported as 0.011 µM.

For `C[C@H]1[C@H]2Cc3ccc(O)cc3[C@]1(C)CCN2CC1CC1` [cyclazocine], the “psychotomimetic effects in humans” value (humans) is listed as “psychotomimetic effects”.

`O=[N+]([O-])c1ccc(N2CCC(N3CCC(c4ccccc4)CC3)CC2)cc1` [Example 8, 1-(4-Nitrophenyl)-4-(4-phenyl-1-piperidinyl)piperidine] showed a Ki (sigma receptor [1]) of 0.0028 µM.

Molecule `CN(Cc1ccccc1)C1CCCN(c2ccc([N+](=O)[O-])cc2)C1` (stereo not shown) [Example 11, 3-(N-benzyl-N-methylamino)-1-(4-nitrophenyl)piperidine] has an EC20 (guinea-pig hearts) of 1.1 µM and a Ki (sigma receptor [1]) of 0.002 µM.

For `OC(CCCN1CCN(c2ncc(F)cn2)CC1)c1ccc(F)cc1` (stereo not drawn) [BMY 14802, α-(4-fluorophenyl)-4-(5-fluoro-2-pyrimidinyl)-1-piperazinebutanol], the “affinity for sigma binding sites” value (sigma binding sites) is given as “high affinity”.

For `CN(Cc1ccc(NS(C)(=O)=O)cc1)CC1CCN(c2ccc(NS(C)(=O)=O)cc2)CC1` [Example 10, 1-(4-Methanesulfonamidophenyl)-4-[N-(4-methanesulfonamidobenzyl)-N-methylaminomethyl]piperidine], the EC20 (guinea-pig hearts) was 0.96 µM.

For `O=C(CCCN1CCC(O)(c2ccc(Cl)cc2)CC1)c1ccc(F)cc1` [haloperidol], the “affinity of the haloperidol-sensitive sigma receptors” value (sigma receptor [2]) is listed as “high affinity” and the “affinity for sigma binding sites” value (sigma binding sites) is listed as “high affinity”.

In the case of `c1ccc(C2(N3CCCCC3)CCCCC2)cc1` [phencyclidine], the “affinity of the haloperidol-sensitive sigma receptors” value (sigma receptor [2]; statement in words on the receptor used in the assay) is given as “low affinity”.

For `CC(C)=CCN1CCC2(C)c3cc(O)ccc3CC1C2C` (stereo not shown) [pentazocine], the “psychotomimetic effects in humans” value (humans) is listed as “psychotomimetic effects”.

For `CNC1(c2ccccc2Cl)CCCCC1=O` (stereo not shown) [ketamine], the “psychotomimetic effects in humans” value (humans) is listed as “psychotomimetic effects”.

For `CN(CC(O)c1ccc(F)cc1)C1CCN(c2ccc([N+](=O)[O-])cc2)CC1` (stereo not shown) [Example 12, 4-[N-[2-(4-Fluorophenyl)-2-hydroxyethyl]-N-methylamino]-1-(4-nitrophenyl)piperidine], the EC20 (guinea-pig hearts) was 0.21 µM.

With `CC(C)NC[C@@H](O)c1ccc(NS(C)(=O)=O)cc1` [D-sotalol, 4'-(1-hydroxy-2-(isopropylamino)ethyl)methanesulfonanilide] the EC20 (guinea-pig hearts) was 16 µM.
